From the supplement of paper PMC11061612

Legend:
[1] = system: HO-1-u-1 (Oral Cavity Carcinoma); experiment: Bliss excess, mean over the matrix (fraction); higher = more synergy
Summary of the method: (§1)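 Cell lines in DMEM/F12 or RPMI with 10% FBS were plated in 1536-well plates, held 24 hours at 37°C, 5% CO2, then given two-drug dose matrices for 72 hours (DMSO typically 0.2%). Viability was read by CellTiter-Glo 2.0 luminescence and scaled as inhibition from 0 (vehicle wells) to 1 (blank wells). Combination Emax is the second-highest inhibition in the matrix; Bliss excess is observed combination effect minus expected EA + EB − EA·EB, EA and EB being single-agent effects.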

[2] = system: LU-139 (Small Cell Lung Carcinoma); experiment: as above
Summary of the method: as §1

[3] = system: OC-314 (Ovarian Carcinoma); experiment: as above
Summary of the method: as §1

[4] = system: OVCAR-8 (Ovarian Carcinoma); experiment: as above
Summary of the method: as §1

[5] = system: 8305C (Thyroid Gland Carcinoma); experiment: combination Emax (second highest fraction inhibited in the dose matrix, 72 h); higher = more inhibition; extreme values may be limits of the assay
Summary of the method: as §1

[6] = system: CAL-51 (Breast Carcinoma); experiment: as above
Summary of the method: as §1

COLO-829 (Melanoma) = experiment: as above
Summary of the method: as §1

[7] = system: HARA (Squamous Cell Lung Carcinoma); experiment: as above
Summary of the method: as §1

HMV-II (Melanoma) = experiment: as above
Summary of the method: as §1

[8] = system: LoVo (Colorectal Carcinoma); experiment: as above
Summary of the method: as §1

[9] = system: MHH-PREB-1 (B-Cell Non-Hodgkin's Lymphoma); experiment: as above
Summary of the method: as §1

Mewo (Melanoma) = experiment: as above
Summary of the method: as §1

[10] = system: NCI-H69 (Small Cell Lung Carcinoma); experiment: as above
Summary of the method: as §1

[11] = system: NCI-H747 (Colorectal Carcinoma); experiment: as above
Summary of the method: as §1

[12] = system: OC-314 (Ovarian Carcinoma); experiment: as above
Summary of the method: as §1

[13] = system: OVCAR-8 (Ovarian Carcinoma); experiment: as above
Summary of the method: as §1

[14] = system: PCI-30 (Head and Neck Carcinoma); experiment: as above
Summary of the method: as §1

[15] = system: RKO (Colorectal Carcinoma); experiment: as above
Summary of the method: as §1

[16] = system: SW1116 (Colorectal Carcinoma); experiment: as above
Summary of the method: as §1

[17] = system: TE-4 (Esophageal Squamous Cell Carcinoma); experiment: as above
Summary of the method: as §1
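For Bliss excess, mean over the matrix in this document: after 72 h of two-drug dosing.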

Row | Compound | Bliss excess [1] | Bliss excess [2] | Bliss excess [3] | Bliss excess [4] | combination Emax [5] | combination Emax [6] | combination Emax (COLO-829 (Melanoma)) | combination Emax [7] | combination Emax (HMV-II (Melanoma)) | combination Emax [8] | combination Emax [9] | combination Emax (Mewo (Melanoma)) | combination Emax [10] | combination Emax [11] | combination Emax [12] | combination Emax [13] | combination Emax [14] | combination Emax [15] | combination Emax [16] | combination Emax [17]
1 | CN(C)CCCOc1ccc(-c2ccc3ncc4c(c3c2)n(C2CCOCC2)c(=O)n4C)cn1 [AZD0156] + CCN(CCO)CCCOc1ccc2c(Nc3cc(CC(=O)Nc4cccc(F)c4)[nH]n3)ncnc2c1 [AZD2811] (first compound max 1 µM, 7x7, partner max 1 µM) | 0.0299 | -0.0441 | 0.0078 | 0.0425 | 0.29 | 0.196 | 0.069 | 0.289 | 0.164 | 0.435 | 0.154 | 0.153 | 0.673 | 0.167 | 0.312 | 0.26 | 0.192 | 0.213 | 0.0823 | 0.071
2 | NC1(C(=O)N[C@@H](CCO)c2ccc(Cl)cc2)CCN(c2ncnc3[nH]ccc23)CC1 [Capivasertib] + Cn1cnc2c(F)c(Nc3ccc(Br)cc3Cl)c(C(=O)NOCCO)cc21 [Selumetinib] (first compound max 10 µM, 7x7, partner max 10 µM) | 0.126 | -0.0165 | 0.0668 | 0.037 | 0.527 | 0.596 | 0.818 | 0.607 | 0.838 | 0.717 | 0.205 | 0.589 | 0.466 | 0.909 | 0.604 | 0.303 | 0.342 | 0.876 | 0.453 | 0.961
3 | C[C@@H](c1ccc2nccn2c1)n1nnc2ncc(-c3cnn(C)c3)nc21 [Savolitinib] + Cc1c2c(nn1C)CSCc1cc(n(C)n1)CSc1cc(c3ccccc3c1)OCCCc1c(C(=O)O)n(C)c3c-2c(Cl)ccc13 [AZD5991] (first compound max 1 µM, 7x7, partner max 1 µM) | -0.034 | -0.0213 | -0.018 | -0.0327 | 0.196 | 0.152 | 0.242 | 0.236 | 0.128 | 0.195 | 0.0906 | 0.265 | 0.159 | 0.337 | 0.163 | 0.0965 | 0.146 | 0.211 | 0.218 | 0.422
4 | C=CCn1c(=O)c2cnc(Nc3ccc(N4CCN(C)CC4)cc3)nc2n1-c1cccc(C(C)(C)O)n1 [AZD1775] + C[C@@H]1COCCN1C2=NC(=NC(=C2)C3(CC3)[S@](=N)(=O)C)C4=C5C=CNC5=NC=C4 [AZD6738] (first compound max 1 µM, partner max 10 µM) | 0.0263 | -0.0149 | 0.0937 | 0.0818 | 0.681 | 0.936 | 0.129 | 0.906 | 0.495 | 0.875 | 0.948 | 0.71 | 0.849 | 0.706 | 0.941 | 0.966 | 0.696 | 0.943 | 0.506 | 0.805
5 | CC1(C)CCC(CN2CCN(c3ccc(C(=O)NS(=O)(=O)c4ccc(NCC5CCOCC5)c([N+](=O)[O-])c4)c(Oc4cnc5[nH]ccc5c4)c3)CC2)=C(c2ccc(Cl)cc2)C1 [Venetoclax] + Cn1cnc2c(F)c(Nc3ccc(Br)cc3Cl)c(C(=O)NOCCO)cc21 [Selumetinib] (first compound max 1 µM, 7x7, partner max 3 µM) | -0.0352 | -0.0357 | -0.0214 | -0.0373 | 0.397 | 0.214 | 0.426 | 0.617 | 0.779 | 0.374 | 0.147 | 0.528 | 0.302 | 0.717 | 0.134 | 0.153 | 0.206 | 0.441 | 0.453 | 0.114
6 | Cc1c2c(nn1C)CSCc1cc(n(C)n1)CSc1cc(c3ccccc3c1)OCCCc1c(C(=O)O)n(C)c3c-2c(Cl)ccc13 [AZD5991] + CC1(C)CCC(CN2CCN(c3ccc(C(=O)NS(=O)(=O)c4ccc(NCC5CCOCC5)c([N+](=O)[O-])c4)c(Oc4cnc5[nH]ccc5c4)c3)CC2)=C(c2ccc(Cl)cc2)C1 [Venetoclax] (first compound max 1 µM, 7x7, partner max 1 µM) | -0.0046 | 0.0307 | -0.0045 | -0.0157 | 0.379 | 0.521 | 0.213 | 0.294 | 0.151 | 0.147 | 0.13 | 0.653 | 0.522 | 0.196 | 0.147 | 0.189 | 0.218 | 0.225 | 0.145 | 0.261
7 | Cn1cnc2c(F)c(Nc3ccc(Br)cc3Cl)c(C(=O)NOCCO)cc21 [Selumetinib] + C[C@@H]1COCCN1C2=NC(=NC(=C2)C3(CC3)[S@](=N)(=O)C)C4=C5C=CNC5=NC=C4 [AZD6738] (first compound max 10 µM, 7x7, partner max 10 µM) | 0.014 | -0.0259 | -0.0764 | -0.0197 | 0.534 | 0.964 | 0.597 | 0.835 | 0.735 | 0.738 | 0.675 | 0.466 | 0.261 | 0.776 | 0.753 | 0.739 | 0.371 | 0.945 | 0.476 | 0.791
8 | CC(=O)c1c(C)c2cnc(Nc3ccc(N4CCNCC4)cn3)nc2n(C2CCCC2)c1=O [Palbociclib] + CC1(C)CCC(CN2CCN(c3ccc(C(=O)NS(=O)(=O)c4ccc(NCC5CCOCC5)c([N+](=O)[O-])c4)c(Oc4cnc5[nH]ccc5c4)c3)CC2)=C(c2ccc(Cl)cc2)C1 [Venetoclax] (first compound max 10 µM, 7x7, partner max 1 µM) | -0.0121 | 0.0462 | -0.0526 | -0.0167 | 0.431 | 0.219 | 0.298 | 0.496 | 0.494 | 0.484 | 0.412 | 0.437 | 0.764 | 0.343 | 0.334 | 0.19 | 0.223 | 0.315 | 0.04 | 0.217
9 | Cc1nc(Nc2ncc(C(=O)Nc3c(C)cccc3Cl)s2)cc(N2CCN(CCO)CC2)n1 [Dasatinib] + CC(=O)Nc1cccc(-n2c(=O)n(C3CC3)c(=O)c3c(Nc4ccc(I)cc4F)n(C)c(=O)c(C)c32)c1 [Trametinib] (first compound max 2 µM, 7x7, partner max 1 µM) | -0.0219 | -0.0243 | 0.0153 | 0.0396 | 0.763 | 0.43 | 0.672 | 0.531 | 0.786 | 0.801 | 0.0875 | 0.589 | 0.124 | 0.909 | 0.781 | 0.671 | 0.643 | 0.885 | 0.757 | 0.857
10 | NC1(C(=O)N[C@@H](CCO)c2ccc(Cl)cc2)CCN(c2ncnc3[nH]ccc23)CC1 [Capivasertib] + CC(=O)c1c(C)c2cnc(Nc3ccc(N4CCNCC4)cn3)nc2n(C2CCCC2)c1=O [Palbociclib] (first compound max 10 µM, 7x7, partner max 10 µM) | -0.0234 | -0.0256 | 0.0028 | -0.0017 | 0.469 | 0.55 | 0.356 | 0.689 | 0.524 | 0.722 | 0.502 | 0.493 | 0.764 | 0.795 | 0.515 | 0.221 | 0.291 | 0.601 | 0.136 | 0.826
11 | Cc1c2c(nn1C)CSCc1cc(n(C)n1)CSc1cc(c3ccccc3c1)OCCCc1c(C(=O)O)n(C)c3c-2c(Cl)ccc13 [AZD5991] + Cn1cnc2c(F)c(Nc3ccc(Br)cc3Cl)c(C(=O)NOCCO)cc21 [Selumetinib] (first compound max 1 µM, 7x7, partner max 3 µM) | 0.0168 | -0.0283 | -0.0313 | 0.0416 | 0.512 | 0.406 | 0.907 | 0.223 | 0.829 | 0.565 | 0.13 | 0.475 | 0.218 | 0.728 | 0.245 | 0.255 | 0.198 | 0.406 | 0.446 | 0.453
12 | Cc1c2c(nn1C)CSCc1cc(n(C)n1)CSc1cc(c3ccccc3c1)OCCCc1c(C(=O)O)n(C)c3c-2c(Cl)ccc13 [AZD5991] + CCN(CCO)CCCOc1ccc2c(Nc3cc(CC(=O)Nc4cccc(F)c4)[nH]n3)ncnc2c1 [AZD2811] (first compound max 1 µM, 7x7, partner max 1 µM) | 0.0569 | 0.0672 | 0.0457 | 0.0412 | 0.365 | 0.66 | 0.269 | 0.776 | 0.4 | 0.314 | 0.144 | 0.366 | 0.623 | 0.311 | 0.449 | 0.42 | 0.284 | 0.349 | 0.256 | 0.575
